Literature values in patent US5945417A, “Heterocyclic compounds, their preparation and use” (priority 1995, dated 1999).

Experiments:
[1] = system: trans ACPD stimulated phosphoinositide hydrolysis; conditions: literature
[2] = system: metabotropic glutamate receptors; conditions: literature
control BHK cells = conditions: 1 mM quisqualate or glutamate
mGluR1α = conditions: 1 mM quisqualate or glutamate; BHK cells expressing mGluR1α
[3] = system: release of dopamine in the rat brain; conditions: literature
MCAO model in mice = conditions: literature
nerve cell cultures = conditions: literature

Structure (SMILES): C[C@@](N)(C(=O)O)c1ccc(C(=O)O)cc1 [S-MCPG, S-alpha methyl4-carboxyphenyl glycine]
- antagonism of trans ACPD stimulated phosphoinositide hydrolysis [1]: antagonise trans ACPD stimulated phosphoinositide hydrolysis

Structure (SMILES): NC(C(=O)O)c1cc(O)no1 (stereo not shown) [ibotenate]
- action on the metabotropic glutamate receptors [2]: non-selective agonists

Structure (SMILES): N[C@@H](Cn1oc(=O)[nH]c1=O)C(=O)O [quisqualate]
- stimulation in control BHK cells (control BHK cells): no stimulation
- action on the metabotropic glutamate receptors [2]: non-selective agonists
- fold increase over basal Pl-hydrolysis (mGluR1α): 6-8 fold

Structure (SMILES): N[C@@H](CP(=O)(O)O)C(=O)O [L-AP3, L-2-amino-3-phosphonopropionic acid]
- action on the metabotropic glutamate receptors [2]: partial agonist

Structure (SMILES): N[C@@H](CCC(=O)O)C(=O)O [L-glutamate]
- fold increase over basal Pl-hydrolysis (mGluR1α): 6-8 fold

Structure (SMILES): N[C@H](C(=O)O)c1ccc(C(=O)O)cc1 [Compound S-4CPG, S-4-carboxyphenyl glycine]
- antagonism of trans ACPD stimulated phosphoinositide hydrolysis [1]: antagonise trans ACPD stimulated phosphoinositide hydrolysis

Structure (SMILES): Cc1onc(O)c1CC(N)C(=O)O (stereo not shown) [AMPA]
- action on the metabotropic glutamate receptors [2]: little effect

Structure (SMILES): CN[C@H](CC(=O)O)C(=O)O [NMDA]
- action on the metabotropic glutamate receptors [2]: little effect

Structure (SMILES): C=C(C)[C@H]1CN[C@H](C(=O)O)[C@H]1CC(=O)O [kainate]
- action on the metabotropic glutamate receptors [2]: little effect

Structure (SMILES): N[C@@]1(C(=O)O)CC[C@@H](C(=O)O)C1 [Trans-ACPD, trans 1S,3R-1-aminocyclopentane-1,3-dicarboxylicacid]
- action on the metabotropic glutamate receptors [2]: selectively activated
- release of dopamine in the rat brain [3]: increase release of dopamine in the rat brain
- neuroprotection in an MCAO model in mice (MCAO model in mice): neuroprotective agent
- inhibition of NMDA induced neurotoxicity (nerve cell cultures): inhibit NMDA induced neurotoxicity

Structure (SMILES): N[C@H](C(=O)O)c1ccc(C(=O)O)c(O)c1 [Compound S-4C3HPG, S-4-carboxy-3-hydroxyphenyl glycine]
- antagonism of trans ACPD stimulated phosphoinositide hydrolysis [1]: antagonise trans ACPD stimulated phosphoinositide hydrolysis
